In article PMC5318439, “The Novel Toll-Like Receptor 2 Agonist SUP3 Enhances Antigen Presentation and T Cell Activation by Dendritic Cells” (Frontiers in Immunology, 2017):
Where a SMILES comes first, the peptide text is derived from it. The star is where a group is joined. X1 = CCCCCCCCCCCCCCNC(=O)OC[C@H](C*)OC(=O)NCCCCCCCCCCCCCC; Palmitoyl = CCCCCCCCCCCCCCCC(=O)*

Columns and labels:
TLR2 = TLR2 (Homo sapiens, UniProt O60603); experiment: Affinity of TLR2 agonist for TLR2; assay type: binding; details: compared with Pam3; Figure S3A
TLR2, sequence (O60603 21-784, species assumed): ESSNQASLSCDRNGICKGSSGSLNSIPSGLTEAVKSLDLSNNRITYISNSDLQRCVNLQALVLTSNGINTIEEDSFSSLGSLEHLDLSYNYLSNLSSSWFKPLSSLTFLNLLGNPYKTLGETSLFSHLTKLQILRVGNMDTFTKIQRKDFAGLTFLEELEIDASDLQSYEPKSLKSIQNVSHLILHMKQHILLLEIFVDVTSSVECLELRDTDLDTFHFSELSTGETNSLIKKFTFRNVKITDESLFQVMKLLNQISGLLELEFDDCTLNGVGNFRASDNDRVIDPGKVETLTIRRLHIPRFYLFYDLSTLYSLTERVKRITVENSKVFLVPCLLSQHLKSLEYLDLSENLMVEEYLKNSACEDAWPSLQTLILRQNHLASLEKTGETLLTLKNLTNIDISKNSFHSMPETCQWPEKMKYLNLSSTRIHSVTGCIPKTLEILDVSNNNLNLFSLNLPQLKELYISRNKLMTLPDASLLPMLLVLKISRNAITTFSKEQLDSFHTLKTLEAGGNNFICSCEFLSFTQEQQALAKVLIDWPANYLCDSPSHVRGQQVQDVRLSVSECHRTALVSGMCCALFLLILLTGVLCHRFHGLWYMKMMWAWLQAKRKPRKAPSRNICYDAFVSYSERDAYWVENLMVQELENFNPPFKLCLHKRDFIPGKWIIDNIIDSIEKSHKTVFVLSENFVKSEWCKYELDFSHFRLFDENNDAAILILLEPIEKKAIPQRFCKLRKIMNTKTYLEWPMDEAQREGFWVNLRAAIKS
Excerpt: (§1) Pam3 is a lipopeptide and serves as a TLR2 agonist through binding to TLR2/TLR1 heterodimer. Although Pam3 is widely used as a TLR2 agonist, some intrinsic problems remain in detailed mechanism studies and drug development. The two ester groups of Pam3 can be easily hydrolyzed in plasma, and the hydroxyl group in serine could be readily oxidized in physiological conditions (Figure S1A in Supplementary Material). […] In addition, we displaced serine residue in Pam3 with glycine residue to eliminate this chiral center (Figures S1A,B in Supplementary Material). Since the third lysine residue in Pam3 is crucial for H bonding, we kept three lysine residues in the new molecule and removed the forth lysine residue to further reduce the molecular weight of the new TLR2 agonist, (2S,5S,8S,14R,18R)-2,5,8-tris(4-aminobutyl)-4,7,10,13,21-pentaoxo-14-palmitamido-18-((tetradecylcarbamoyl)oxy)-20-oxa-16-thia-3,6,9,12,22-pentaazahexatriacontan-1-oic acid. It is termed SUP3 (Figure 1A; Figures S1A,B in Supplementary Material). Chemical characterization of SUP3 by ^1H nuclear magnetic resonance and electrospray ionization mass spectrum analysis further confirm the structure (Figures S2A,B in Supplementary Material).

Plasma stability = assay type: in vitro ADME; details: compared with Pam3, Figure S3B
Excerpt: as §1

- affinity (TLR2): comparable with Pam3
- plasma stability (Plasma stability): much higher than Pam3
SMILES: CCCCCCCCCCCCCCCC(=O)N[C@@H](CSC[C@@H](COC(=O)NCCCCCCCCCCCCCC)OC(=O)NCCCCCCCCCCCCCC)C(=O)NCC(=O)N[C@@H](CCCCN)C(=O)N[C@@H](CCCCN)C(=O)N[C@@H](CCCCN)C(=O)O [SUP3, (2S,5S,8S,14R,18R)-2,5,8-tris(4-aminobutyl)-4,7,10,13,21-pentaoxo-14-palmitamido-18-((tetradecylcarbamoyl)oxy)-20-oxa-16-thia-3,6,9,12,22-pentaazahexatriacontan-1-oic acid] (Palmitoyl-C(X1)GKKK-OH)
